Several values for one entry are separate records, joined by “and”; a condition that tells them apart may be missing. Identical values can stand only once. Inconclusive results and toxic doses are left out. Rule as the data show it: active = T/C of 150% or more; inactive = T/C below 125%.
Tested on: L1210 leukemia ip in BDF1 mice, survival T/C
Assay: NCI In Vivo Anticancer Drug Screen. Data for tumor model L1210 Leukemia (intraperitoneal) in B6D2F1 (BDF1) mice
Settings: endpoint: mean survival time, higher = longer survival
How it was run: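 Read-out is survival time, reported as the treated-group measurement over the vehicle-control measurement.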

[1] = dose: 100.0 mg/kg/injection, schedule: Q04DX003 (ip), vehicle: saline with Tween-80
[2] = dose: 200.0 mg/kg/injection, schedule: Q04DX003 (ip), vehicle: saline with Tween-80
[3] = dose: 400.0 mg/kg/injection, schedule: Q04DX002 (ip), vehicle: saline with Tween-80
[4] = dose: 400.0 mg/kg/injection, schedule: Q04DX003 (ip), vehicle: saline with Tween-80
[5] = dose: 25.0 mg/kg/injection, schedule: Q04DX003 (ip), vehicle: saline
[6] = dose: 50.0 mg/kg/injection, schedule: Q04DX003 (ip), vehicle: saline
[7] = dose: 100.0 mg/kg/injection, schedule: Q01DX009 (ip), vehicle: saline
[8] = dose: 100.0 mg/kg/injection, schedule: Q04DX003 (ip), vehicle: saline
[9] = dose: 200.0 mg/kg/injection, schedule: Q01DX009 (ip), vehicle: saline
[10] = dose: 200.0 mg/kg/injection, schedule: Q04DX003 (ip), vehicle: saline
[11] = dose: 400.0 mg/kg/injection, schedule: Q01DX009 (ip), vehicle: saline
[12] = dose: 400.0 mg/kg/injection, schedule: Q04DX003 (ip), vehicle: saline
[13] = dose: 100.0 mg/kg/injection, schedule: Q01DX009 (ip), vehicle: Klucel (hydroxypropylcellulose) (HPC)
[14] = dose: 200.0 mg/kg/injection, schedule: Q01DX009 (ip), vehicle: Klucel (hydroxypropylcellulose) (HPC)
[15] = dose: 400.0 mg/kg/injection, schedule: Q01DX009 (ip), vehicle: Klucel (hydroxypropylcellulose) (HPC)
[16] = dose: 50.0 mg/kg/injection, schedule: Q01DX001 (ip), vehicle: Klucel (hydroxypropylcellulose) (HPC)
[17] = dose: 100.0 mg/kg/injection, schedule: Q01DX001 (ip), vehicle: Klucel (hydroxypropylcellulose) (HPC)
[18] = dose: 100.0 mg/kg/injection, schedule: Q04DX002 (ip), vehicle: Klucel (hydroxypropylcellulose) (HPC)
[19] = dose: 200.0 mg/kg/injection, schedule: Q04DX002 (ip), vehicle: Klucel (hydroxypropylcellulose) (HPC)
[20] = dose: 400.0 mg/kg/injection, schedule: Q04DX002 (ip), vehicle: Klucel (hydroxypropylcellulose) (HPC)

Measured: T/C

c1ccc([Si](c2ccccc2)(c2ccccc2)c2ccc3ccccc3c2)cc1
inactive: dose: 25.6 mg/kg/injection, schedule: Q04DX002 (ip), vehicle: saline with Tween-80 87 % of control | dose: 64.0 mg/kg/injection, schedule: Q04DX002 (ip), vehicle: saline with Tween-80 90 % of control | [1] 90 % of control | dose: 160.0 mg/kg/injection, schedule: Q04DX002 (ip), vehicle: saline with Tween-80 90 % of control | [2] 88 % of control | [3] 90 % of control | [4] 87 % of control

O=C(CCCN1CCC2(CC1)C(=O)NCN2c1ccccc1)c1cccs1
inactive: dose: 3.13 mg/kg/injection, schedule: Q01DX009 (ip), vehicle: saline with Tween-80 95 % of control | dose: 6.25 mg/kg/injection, schedule: Q01DX009 (ip), vehicle: saline with Tween-80 94 % of control | dose: 6.25 mg/kg/injection, schedule: Q04DX003 (ip), vehicle: saline with Tween-80 102 % of control | dose: 12.5 mg/kg/injection, schedule: Q01DX009 (ip), vehicle: saline with Tween-80 89 % of control | dose: 12.5 mg/kg/injection, schedule: Q04DX003 (ip), vehicle: saline with Tween-80 95 % of control

CCOC(=O)c1ccc(NCCC(=O)CBr)cc1
inactive: dose: 5.0 mg/kg/injection, schedule: Q01DX001 (ip), vehicle: carboxymethylcellulose (CMC) 97 % of control | dose: 10.0 mg/kg/injection, schedule: Q01DX001 (ip), vehicle: carboxymethylcellulose (CMC) 97 % of control | dose: 20.0 mg/kg/injection, schedule: Q01DX001 (ip), vehicle: carboxymethylcellulose (CMC) 92 % of control | dose: 40.0 mg/kg/injection, schedule: Q01DX001 (ip), vehicle: carboxymethylcellulose (CMC) 100 % of control

Clc1nc2ccccc2n2nnnc12
inactive: dose: 15.0 mg/kg/injection, schedule: Q04DX003 (ip), vehicle: saline 101 % of control | dose: 30.0 mg/kg/injection, schedule: Q04DX003 (ip), vehicle: saline 98 % of control | dose: 60.0 mg/kg/injection, schedule: Q04DX003 (ip), vehicle: saline 86 % of control

CC(C)C1(C(C)C)OCC(CO)O1 (stereo unspecified)
inactive: dose: 25.0 mg/kg/injection, schedule: Q01DX009 (ip), vehicle: saline 93 % of control | [5] 100 % of control | dose: 50.0 mg/kg/injection, schedule: Q01DX009 (ip), vehicle: saline 102 % of control | [6] 94 % of control | [7] 104 % of control | [8] 94 % of control | [9] 102 % of control | [10] 102 % of control | [11] 104 % of control | [12] 100 % of control

Cc1ccc(S(=O)(=O)N(CCC#N)CCC#N)cc1
inactive: dose: 25.0 mg/kg/injection, schedule: Q01DX009 (ip), vehicle: Klucel (hydroxypropylcellulose) (HPC) 106 % of control | dose: 50.0 mg/kg/injection, schedule: Q01DX009 (ip), vehicle: Klucel (hydroxypropylcellulose) (HPC) 112 % of control | [13] 97 % of control and 101 % of control | [14] 92 % of control | [15] 96 % of control

O=C(NCCCCCCNC(=O)Nc1ccccc1F)Nc1ccccc1F
inactive: [13] 100 % of control | [14] 89 % of control | [15] 92 % of control

CC(O)c1ccc(-c2ccccc2)cc1 (stereo unspecified)
inactive: [13] 94 % of control | dose: 100.0 mg/kg/injection, schedule: Q04DX003 (ip), vehicle: Klucel (hydroxypropylcellulose) (HPC) 95 % of control | [14] 97 % of control | dose: 200.0 mg/kg/injection, schedule: Q04DX003 (ip), vehicle: Klucel (hydroxypropylcellulose) (HPC) 101 % of control | [15] 111 % of control | dose: 400.0 mg/kg/injection, schedule: Q04DX003 (ip), vehicle: Klucel (hydroxypropylcellulose) (HPC) 98 % of control

COc1cc(C)c(C=O)cc1OC
inactive: dose: 5.0 mg/kg/injection, schedule: Q01DX001 (ip), vehicle: saline 103 % of control | dose: 10.0 mg/kg/injection, schedule: Q01DX001 (ip), vehicle: saline 107 % of control | dose: 20.0 mg/kg/injection, schedule: Q01DX001 (ip), vehicle: saline 97 % of control | dose: 40.0 mg/kg/injection, schedule: Q01DX001 (ip), vehicle: saline 101 % of control | dose: 80.0 mg/kg/injection, schedule: Q01DX001 (ip), vehicle: saline 109 % of control

CCCN(CCC)C(=O)CCC(C)O (stereo unspecified)
inactive: dose: 100.0 mg/kg/injection, schedule: Q01DX001 (ip), vehicle: acetone 113 % of control | dose: 200.0 mg/kg/injection, schedule: Q01DX001 (ip), vehicle: acetone 101 % of control | dose: 400.0 mg/kg/injection, schedule: Q01DX001 (ip), vehicle: acetone 103 % of control

CCOC(=O)NC(=O)CC
inactive: [7] 100 % of control | [8] 98 % of control | [9] 110 % of control | [10] 98 % of control | [11] 110 % of control | [12] 98 % of control

Cc1cccc([N+](=O)[O-])c1-c1c(C)cccc1[N+](=O)[O-]
inactive: [16] 102 % of control | [17] 102 % of control | dose: 200.0 mg/kg/injection, schedule: Q01DX001 (ip), vehicle: Klucel (hydroxypropylcellulose) (HPC) 96 % of control

O=C(Nc1ccc(S(=O)(=O)F)cc1)Oc1ccc([N+](=O)[O-])cc1
inactive: dose: 25.0 mg/kg/injection, schedule: Q01DX009 (ip), vehicle: saline with Tween-80 92 % of control and 93 % of control | dose: 50.0 mg/kg/injection, schedule: Q01DX001 (ip), vehicle: saline with Tween-80 103 % of control | dose: 50.0 mg/kg/injection, schedule: Q01DX009 (ip), vehicle: saline with Tween-80 92 % of control and 89 % of control | dose: 100.0 mg/kg/injection, schedule: Q01DX001 (ip), vehicle: saline with Tween-80 105 % of control | dose: 100.0 mg/kg/injection, schedule: Q04DX002 (ip), vehicle: saline with Tween-80 95 % of control | [1] 93 % of control | dose: 200.0 mg/kg/injection, schedule: Q01DX001 (ip), vehicle: saline with Tween-80 97 % of control | dose: 200.0 mg/kg/injection, schedule: Q01DX009 (ip), vehicle: saline with Tween-80 98 % of control | dose: 200.0 mg/kg/injection, schedule: Q04DX002 (ip), vehicle: saline with Tween-80 96 % of control | [2] 98 % of control | dose: 400.0 mg/kg/injection, schedule: Q01DX001 (ip), vehicle: saline with Tween-80 105 % of control | [3] 88 % of control | [4] 103 % of control

CCCCCCCCCCCCCCCCN1CCN(CCCCCCCCCCCCCCCC)CC1
inactive: [18] 108 % of control | [19] 101 % of control | [20] 101 % of control

Cc1cn(O)c2nc(N)nc(=O)c-2n1
inactive: dose: 25.0 mg/kg/injection, schedule: Q01DX001 (ip), vehicle: Klucel (hydroxypropylcellulose) (HPC) 97 % of control | [16] 103 % of control | [17] 100 % of control and 101 % of control

[Cl][Pd]([Cl])([Cl])[Cl]
inactive: dose: 12.5 mg/kg/injection, schedule: Q04DX003 (ip), vehicle: saline 95 % of control | [5] 98 % of control | [6] 102 % of control | [8] 90 % of control

ClCc1nc2ccccc2s1
inactive: [13] 91 % of control | [18] 92 % of control | [14] 98 % of control | [19] 103 % of control | [20] 103 % of control

CCCCC(=O)N/N=C\c1cccc([N+](=O)[O-])c1
inactive: dose: 100.0 mg/kg/injection, schedule: Q01DX001 (ip), vehicle: carboxymethylcellulose (CMC) 92 % of control | dose: 200.0 mg/kg/injection, schedule: Q01DX001 (ip), vehicle: carboxymethylcellulose (CMC) 92 % of control | dose: 400.0 mg/kg/injection, schedule: Q01DX001 (ip), vehicle: carboxymethylcellulose (CMC) 95 % of control

Source: PubChem BioAssay AID248 (DTP/NCI, 2004)
